Assay results: paper PMC8750630, “Novel Molecular Targets for Hepatocellular Carcinoma” (Cancers, 2021)

Test system: CD8+ T cells
Assay: pMHC multimer staining of PBMCs for epitope-specific CD8+ T cells
Format: cell-based, human
Settings: HLA-A*02:01 multimers, PBMCs from 4 HCC patients and 3 healthy donors, average
Description: pMHC complexes were generated by combining purified disulfide-stabilized HLA A*0201 monomer (100 μg/mL) with 100 μM peptide for 30 min in PBS at room temperature. Then, pMHC complexes were centrifuged for 5 min at 3300× g to sediment any aggregated MHC molecules. For each 100 μL pMHC, 9.02 μL (0.2 mg/mL stock, SA-PE (BioLegend, 405204), SA-APC (BioLegend, 405207), SA-PE/Cy7 (BioLegend, 405206), SA-PE-CF594 (BD, 562284)), or 18.04 μL (0.1 mg/mL stock, SA-BV421 (BioLegend, 405226), SA-BV650 (BioLegend, 405231) streptavidin conjugate was added and incubated for 30 min on ice. D-biotin (Sigma-Aldrich, St.Louis, MO, USA) was added at a final concentration of 25 μM to block any free binding sites and multimers were stored at −20 °C with 5% glycerol and 0.5% BSA. To stain for T-cell reactivity, PBMCs from 4 HCC patients and 3 healthy donors (2–5 × 10^6) were incubated with a pool of pMHC multimers (3 μL/multimer) and dasatinib (50 nM final, LC laboratories, D-3307) for 15 min at 37 °C. Cells were then stained with antibodies CD3-FITC (1:40, BD, 345763) and CD8-BV480 (1:100, BD, 566121) and LIVE/DEAD Fixable Near-IR (1:1000, Invitrogen, Waltham, MA, USA L10119) for 30 min on ice and washed twice in FACS buffer (PBS + 2% FCS). Gating for CD3^+/CD8^+ T cells was performed on live cells, and binding to pMHCs was assessed by measuring specific fluorescence associated with each individual pMHC. Samples were acquired on a flow cytometer (LSRFortessa, BD, Franklin Lakes, NJ, USA).

| Sequence | percentage of CD8+ T cells reacting with the peptide |
| --- | --- |
| ALLALTSAV | 0.88% |
| MLAGNAFTA | 0.46% |
| LLGPQLVLL | 0.55% |
| MLAGNEFQV | 0.32% |
